Measurements taken from patent US12378208B2, “N-substituted oseltamivir derivatives with antimicrobial activity” (THE HONG KONG POLYTECHNIC UNIVERSITY, priority 2019, dated 2025).

Key:
[1] = test system: oseltamivir-resistant strain 09v71923; experiment: Plaque assay in MDCK cells; assay type: cell-based, influenza A virus (H1N1 pandemic)
[2] = test system: oseltamivir-resistant strain 11v17178; experiment: Plaque assay in MDCK cells; assay type: cell-based, influenza A virus (H1N1 pandemic)
[3] = day 3, vs DMSO vehicle, two concentrations

SMILES	plaque size [1, 3]	plaque size [2, 3]	plaque size ([1]; 0.2 nM oseltamivir, day 3)	plaque size ([2]; 0.1 nM oseltamivir, day 3)
CCC(CC)O[C@@H]1C=C(C(=O)O)C[C@H](NCc2noc(-c3ccco3)n2)[C@H]1NC(C)=O [Compound S7, (3R,4R,5S)-4-acetamido-5-(((5-(furan-2-yl)-1,2,4-oxadiazol-3-yl)methyl)amino)-3-(pentan-3-yloxy)cyclohex-1-ene-1-carboxylic acid]	No inhibition effect	No inhibition effect	–	–
CCC(CC)O[C@@H]1C=C(C(=O)O)C[C@H](NCc2ccc(-c3c(C)noc3C)o2)[C@H]1NC(C)=O [Compound S22, (3R,4R,5S)-4-acetamido-5-(((5-(3,5-dimethylisoxazol-4-yl)furan-2-yl)methyl)amino)-3-(pentan-3-yloxy)cyclohex-1-ene-1-carboxylic acid]	No inhibition effect	No inhibition effect	–	–
CCOC(=O)C1=C[C@@H](OC(CC)CC)[C@H](NC(C)=O)[C@@H](N)C1 [oseltamivir]	could not reduce the plaque size	–	larger plaque size	significant reduction
